# Experimental data published in patent publication US20220323406A1, “METHODS AND COMPOSITIONS FOR DIFFERENTIATING STEM CELLS” (Massachusetts Institute of Technology, priority 2019, published 2022).
# Structures can show the parent of a compound that is named as a salt.
# Assays:
# ENR+CD organoids = test: Primary screen: ATP (CellTiter-Glo 3D, CTG) cell number/viability, 2.5-D 384-well ENR+CD organoids; conditions: primary screen; for Dose.FC.CTG: FC vs plate median; for Z.CTG: standard z score;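 as to all read-outs here: compounds given at plating and again on day 3 over a 6-day differentiation from ENR+CV stem-cell-enriched precursors, ATP measured on day 6, plate median as control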
# [1] = test system: ENR+CD organoids (ISC to Paneth cell differentiation); test: Primary screen: basal (non-stimulated) lysozyme secretion LYZ.NS, 2.5-D 384-well ENR+CD organoid differentiation; type: cell-based, mouse; conditions: primary screen; for Z.LYZ.NS: standard z score; for Dose.FC.LYZ.NS: FC vs plate median
# Source text: (§1) High-throughput screening.
# [2] = test system: ENR+CD organoids (ISC to Paneth cell differentiation); test: Primary screen: CCh-stimulated lysozyme secretion LYZ.S, 2.5-D 384-well ENR+CD organoid differentiation; type: cell-based, mouse; conditions: primary screen; for Dose.FC.LYZ.S: FC vs plate median
# Source text: as §1
SMILES,Dose.FC.CTG (ENR+CD organoids; dose 0.08 uM) [log2 fold change],Dose.FC.CTG (ENR+CD organoids; dose 0.40 uM) [log2 fold change],Dose.FC.CTG (ENR+CD organoids; dose 2.00 uM) [log2 fold change],Dose.FC.CTG (ENR+CD organoids; dose 10.00 uM) [log2 fold change],Z.LYZ.NS ([1]; dose 0.08 uM),Z.LYZ.NS ([1]; dose 0.40 uM),Z.LYZ.NS ([1]; dose 2.00 uM),Z.LYZ.NS ([1]; dose 10.00 uM),Dose.FC.LYZ.NS ([1]; dose 0.08 uM) [log2 fold change],Dose.FC.LYZ.NS ([1]; dose 0.40 uM) [log2 fold change],Dose.FC.LYZ.NS ([1]; dose 2.00 uM) [log2 fold change],Dose.FC.LYZ.NS ([1]; dose 10.00 uM) [log2 fold change],Dose.FC.LYZ.S ([2]; dose 0.08 uM) [log2 fold change],Dose.FC.LYZ.S ([2]; dose 0.40 uM) [log2 fold change],Dose.FC.LYZ.S ([2]; dose 2.00 uM) [log2 fold change],Dose.FC.LYZ.S ([2]; dose 10.00 uM) [log2 fold change],Dose.FC.CTG (log2 fold change) (ENR+CD organoids; dose 0.08 uM),Dose.FC.LYZ.NS (log2 fold change) ([1]; dose 0.08 uM),Z.LYZ.NS (standard z score) ([1]; dose 0.08 uM),Dose.FC.LYZ.S (log2 fold change) ([2]; dose 0.08 uM),other results
O=C(O)c1ccc(Nc2ncc3c(n2)-c2ccc(Cl)cc2C(c2c(F)cccc2F)=NC3)cc1 [MLN8054],0.026,0.014,−0.465,−0.498,0.574,0.066,−0.868,−0.979,0.066,0.008,−0.100,−0.112,0.042,0.167,−0.087,−0.197,–,–,–,–,–
CCC(CC)(NC(=O)C(C)C)C(=O)N[C@@H](CCCN=C(N)N)C(=O)NC1(C(=O)NC(c2ccc(F)cc2)c2ccc(F)cc2)CCCC1 [MM-102],−0.205,−0.132,−0.233,−0.403,−0.220,−0.090,0.230,−1.424,−0.025,−0.010,0.026,−0.164,−0.027,−0.001,−0.035,−0.194,–,–,–,–,Z.CTG (ENR+CD organoids; dose 0.08 uM): −0.489; Z.CTG (ENR+CD organoids; dose 0.40 uM): −0.315; Z.CTG (ENR+CD organoids; dose 2.00 uM): −0.557; Z.CTG (ENR+CD organoids; dose 10.00 uM): −0.964
S=C=Nc1cccc(NC(=S)NCCCCNC(=S)Nc2cccc(N=C=S)c2)c1 [MRS 2578],−0.142,0.061,−0.159,−0.228,1.011,0.311,0.270,0.276,0.116,0.036,0.031,0.032,0.095,0.067,0.023,0.013,–,–,–,–,Z.CTG (ENR+CD organoids; dose 0.08 uM): −0.339; Z.CTG (ENR+CD organoids; dose 0.40 uM): 0.146; Z.CTG (ENR+CD organoids; dose 2.00 uM): −0.381; Z.CTG (ENR+CD organoids; dose 10.00 uM): −0.544
COc1cc(-n2c(=S)[nH]c3ccccc3c2=O)c(Cl)cc1Cl [Mdivi-1],–,–,–,–,–,–,–,–,–,–,–,–,–,–,–,–,0.008,0.177,1.537,0.079,Z.CTG (standard z score) (ENR+CD organoids; dose 0.08 uM): 0.019; Dose.FC.CTG (log2 fold change) (ENR+CD organoids; dose 0.40 uM): −0.031; Z.CTG (standard z score) (ENR+CD organoids; dose 0.40 uM): −0.074; Dose.FC.CTG (log2 fold change) (ENR+CD organoids; dose 2.00 uM): −0.112; Z.CTG (standard z score) (ENR+CD organoids; dose 2.00 uM): −0.267; Dose.FC.CTG (log2 fold change) (ENR+CD organoids; dose 10.00 uM): −0.527; Z.CTG (standard z score) (ENR+CD organoids; dose 10.00 uM): −1.259; Dose.FC.LYZ.NS (log2 fold change) ([1]; dose 0.40 uM): 0.156; Z.LYZ.NS (standard z score) ([1]; dose 0.40 uM): 1.358; Dose.FC.LYZ.NS (log2 fold change) ([1]; dose 2.00 uM): −0.022; Z.LYZ.NS (standard z score) ([1]; dose 2.00 uM): −0.194; Dose.FC.LYZ.NS (log2 fold change) ([1]; dose 10.00 uM): −0.268; Z.LYZ.NS (standard z score) ([1]; dose 10.00 uM): −2.333; Dose.FC.LYZ.S (log2 fold change) ([2]; dose 0.40 uM): 0.030; Dose.FC.LYZ.S (log2 fold change) ([2]; dose 2.00 uM): −0.048; Dose.FC.LYZ.S (log2 fold change) ([2]; dose 10.00 uM): −0.411
CC12CC3CC(C)(C1)CC(N)(C3)C2 [Memantine HCl],–,–,–,–,–,–,–,–,–,–,–,–,–,–,–,–,0.083,0.069,0.598,0.091,Dose.FC.CTG (log2 fold change) (ENR+CD organoids; dose 0.40 uM): 0.072; Dose.FC.CTG (log2 fold change) (ENR+CD organoids; dose 2.00 uM): −0.007; Dose.FC.CTG (log2 fold change) (ENR+CD organoids; dose 10.00 uM): 0.077; Dose.FC.LYZ.NS (log2 fold change) ([1]; dose 0.40 uM): 0.004; Z.LYZ.NS (standard z score) ([1]; dose 0.40 uM): 0.032; Dose.FC.LYZ.NS (log2 fold change) ([1]; dose 2.00 uM): 0.106; Z.LYZ.NS (standard z score) ([1]; dose 2.00 uM): 0.919; Dose.FC.LYZ.NS (log2 fold change) ([1]; dose 10.00 uM): −0.047; Z.LYZ.NS (standard z score) ([1]; dose 10.00 uM): −0.411; Dose.FC.LYZ.S (log2 fold change) ([2]; dose 0.40 uM): 0.017; Dose.FC.LYZ.S (log2 fold change) ([2]; dose 2.00 uM): 0.051; Dose.FC.LYZ.S (log2 fold change) ([2]; dose 10.00 uM): −0.021
CN(Cc1cnc2nc(N)nc(N)c2n1)c1ccc(C(=O)N[C@@H](CCC(=O)O)C(=O)O)cc1 [Methotrexate],–,−0.722,−0.701,−0.642,–,−0.332,−1.132,−0.658,–,−0.038,−0.130,−0.076,–,−0.129,−0.177,−0.156,−0.615,−0.097,−0.843,−0.159,–
